Molecules are shown by their SMILES.

In patent US12479847B2 (DANA-FARBER CANCER INSTITUTE, INC., priority 2019, dated 2025) one finds remaining binding data, which are given here for three molecules.

Holding throughout (experiment): KINOMEscan (ScanMAX) kinase profiling
Holding throughout (type): binding

Test [1] concerns the target T1, panel of 468 kinases (Homo sapiens, UniProt P06241).
T1 construct: purchased KINOMEscan (ScanMAX) service
As to conditions: FYN; 1 μM; read-out: % control.

Test [2] concerns the target T2, panel of 468 kinases (Homo sapiens, UniProt P17948).
T2 construct: purchased KINOMEscan (ScanMAX) service
The conditions noted are these: FLT1; 1 μM; read-out: % control.

Test [3] addresses T3, panel of 468 kinases (Homo sapiens, UniProt P20794).
T3 construct: purchased KINOMEscan (ScanMAX) service
T3 sequence (P20794 1-623): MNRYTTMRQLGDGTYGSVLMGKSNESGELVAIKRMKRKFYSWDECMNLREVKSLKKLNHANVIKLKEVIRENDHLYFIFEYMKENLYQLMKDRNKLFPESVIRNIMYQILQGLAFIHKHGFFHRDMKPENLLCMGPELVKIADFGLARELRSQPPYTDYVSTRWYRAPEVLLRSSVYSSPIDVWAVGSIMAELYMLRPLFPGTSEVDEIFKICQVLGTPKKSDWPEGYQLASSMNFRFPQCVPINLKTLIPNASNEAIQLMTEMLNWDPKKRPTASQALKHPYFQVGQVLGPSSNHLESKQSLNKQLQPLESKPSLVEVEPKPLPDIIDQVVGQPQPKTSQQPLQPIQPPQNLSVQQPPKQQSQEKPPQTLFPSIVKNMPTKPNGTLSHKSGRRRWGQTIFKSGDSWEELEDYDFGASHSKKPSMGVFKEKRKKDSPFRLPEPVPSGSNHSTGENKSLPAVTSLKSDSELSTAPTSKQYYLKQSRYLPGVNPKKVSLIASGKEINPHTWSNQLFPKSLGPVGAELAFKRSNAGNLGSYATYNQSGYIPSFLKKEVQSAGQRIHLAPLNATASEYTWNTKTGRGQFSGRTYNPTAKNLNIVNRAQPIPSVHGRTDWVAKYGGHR
The conditions noted are these: MAK; 1 μM; read-out: % control.

Test [4] deals with T4, panel of 468 kinases (Homo sapiens, UniProt P46734).
T4 construct: purchased KINOMEscan (ScanMAX) service
T4 sequence (P46734 1-347): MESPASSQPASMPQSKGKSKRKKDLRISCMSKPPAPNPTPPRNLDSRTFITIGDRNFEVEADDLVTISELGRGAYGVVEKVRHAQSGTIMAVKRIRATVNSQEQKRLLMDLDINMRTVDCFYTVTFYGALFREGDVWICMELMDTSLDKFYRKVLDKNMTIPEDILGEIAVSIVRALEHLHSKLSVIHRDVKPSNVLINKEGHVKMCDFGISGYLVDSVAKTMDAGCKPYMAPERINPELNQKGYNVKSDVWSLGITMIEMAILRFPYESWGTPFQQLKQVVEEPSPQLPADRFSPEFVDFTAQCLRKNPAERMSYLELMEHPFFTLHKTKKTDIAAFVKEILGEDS
The conditions noted are these: MEK3; 1 μM; read-out: % control.

The target of test [5] is T5, panel of 468 kinases (Homo sapiens, UniProt P49761).
T5 construct: purchased KINOMEscan (ScanMAX) service
T5 sequence (P49761 whole entry): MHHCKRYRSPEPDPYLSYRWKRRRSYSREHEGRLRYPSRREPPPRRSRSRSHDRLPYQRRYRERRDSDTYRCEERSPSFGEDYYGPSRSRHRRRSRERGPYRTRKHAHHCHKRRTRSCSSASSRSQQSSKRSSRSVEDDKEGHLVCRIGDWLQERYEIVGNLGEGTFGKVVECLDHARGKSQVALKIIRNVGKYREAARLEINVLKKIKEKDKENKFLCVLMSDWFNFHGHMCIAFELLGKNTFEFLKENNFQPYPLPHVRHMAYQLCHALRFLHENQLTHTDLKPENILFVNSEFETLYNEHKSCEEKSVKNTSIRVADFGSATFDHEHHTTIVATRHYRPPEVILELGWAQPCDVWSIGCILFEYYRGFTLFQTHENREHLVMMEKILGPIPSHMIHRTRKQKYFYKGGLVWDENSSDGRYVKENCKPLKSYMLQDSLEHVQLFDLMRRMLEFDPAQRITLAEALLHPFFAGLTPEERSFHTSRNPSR
As to conditions: CLK3; 1 μM; read-out: % control.

The target of test [6] is T6, panel of 468 kinases (Homo sapiens, UniProt P78362).
T6 construct: purchased KINOMEscan (ScanMAX) service
T6 sequence (P78362 whole entry): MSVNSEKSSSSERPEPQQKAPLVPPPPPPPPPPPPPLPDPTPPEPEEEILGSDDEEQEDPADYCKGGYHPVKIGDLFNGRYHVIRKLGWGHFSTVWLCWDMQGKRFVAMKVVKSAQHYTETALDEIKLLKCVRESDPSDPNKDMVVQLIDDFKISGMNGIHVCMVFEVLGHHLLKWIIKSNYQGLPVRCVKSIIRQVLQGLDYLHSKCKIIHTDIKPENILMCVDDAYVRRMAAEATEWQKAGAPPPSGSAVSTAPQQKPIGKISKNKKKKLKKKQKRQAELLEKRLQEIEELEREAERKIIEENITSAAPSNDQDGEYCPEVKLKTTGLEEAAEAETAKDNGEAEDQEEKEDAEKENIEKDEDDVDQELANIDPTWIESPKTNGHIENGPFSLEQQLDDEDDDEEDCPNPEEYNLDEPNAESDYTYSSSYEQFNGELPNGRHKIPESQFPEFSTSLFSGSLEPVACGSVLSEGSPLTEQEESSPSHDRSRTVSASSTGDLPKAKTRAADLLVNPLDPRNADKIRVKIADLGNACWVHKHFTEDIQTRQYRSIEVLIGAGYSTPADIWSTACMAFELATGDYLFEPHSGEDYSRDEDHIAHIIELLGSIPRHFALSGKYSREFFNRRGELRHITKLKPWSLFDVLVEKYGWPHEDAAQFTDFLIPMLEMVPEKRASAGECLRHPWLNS
The conditions noted are these: SRPK2; 1 μM; read-out: % control.

In test [7] the target is T7, panel of 468 kinases (Homo sapiens, UniProt Q13470).
T7 construct: purchased KINOMEscan (ScanMAX) service
T7 sequence (Q13470 1-666): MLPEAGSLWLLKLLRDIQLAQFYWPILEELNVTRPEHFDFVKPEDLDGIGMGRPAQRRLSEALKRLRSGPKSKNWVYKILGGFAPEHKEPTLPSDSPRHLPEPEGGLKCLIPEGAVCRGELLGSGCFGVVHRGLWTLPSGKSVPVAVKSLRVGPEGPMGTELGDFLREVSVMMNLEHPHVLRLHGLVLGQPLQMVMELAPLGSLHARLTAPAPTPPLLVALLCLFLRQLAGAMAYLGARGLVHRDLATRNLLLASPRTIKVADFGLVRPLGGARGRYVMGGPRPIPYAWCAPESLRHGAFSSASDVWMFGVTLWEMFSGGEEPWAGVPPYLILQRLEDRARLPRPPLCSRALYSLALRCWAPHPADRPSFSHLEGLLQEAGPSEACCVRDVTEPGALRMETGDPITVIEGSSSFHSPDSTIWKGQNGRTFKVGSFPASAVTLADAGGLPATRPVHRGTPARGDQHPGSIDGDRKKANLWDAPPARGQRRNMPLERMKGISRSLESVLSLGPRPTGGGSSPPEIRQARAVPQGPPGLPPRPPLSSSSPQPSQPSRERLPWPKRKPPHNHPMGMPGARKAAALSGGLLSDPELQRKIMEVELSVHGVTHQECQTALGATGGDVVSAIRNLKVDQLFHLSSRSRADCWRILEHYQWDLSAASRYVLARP
As to conditions: TNK1; 1 μM; read-out: % control.

Test [8] has as its target T8, panel of 468 kinases (Homo sapiens, UniProt Q15831).
T8 construct: purchased KINOMEscan (ScanMAX) service
T8 sequence (Q15831 1-433): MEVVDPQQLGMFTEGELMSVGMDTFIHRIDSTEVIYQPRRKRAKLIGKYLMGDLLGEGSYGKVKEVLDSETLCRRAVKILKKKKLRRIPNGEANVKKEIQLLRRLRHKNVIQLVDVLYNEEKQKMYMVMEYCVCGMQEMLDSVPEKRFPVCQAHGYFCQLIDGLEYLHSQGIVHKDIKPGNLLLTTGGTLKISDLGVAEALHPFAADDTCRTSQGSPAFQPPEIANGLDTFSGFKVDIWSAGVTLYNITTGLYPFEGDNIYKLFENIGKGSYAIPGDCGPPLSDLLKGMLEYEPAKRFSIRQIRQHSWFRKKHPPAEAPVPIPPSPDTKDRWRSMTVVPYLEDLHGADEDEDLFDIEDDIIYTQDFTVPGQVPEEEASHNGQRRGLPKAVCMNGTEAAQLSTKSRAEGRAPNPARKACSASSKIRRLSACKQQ
The conditions noted are these: LKB1; 1 μM; read-out: % control.

Test [9] has as its target T9, panel of 468 kinases (Homo sapiens, UniProt Q9H422).
T9 construct: purchased KINOMEscan (ScanMAX) service
As to conditions: HIPK3; 1 μM; read-out: % control.

T1 sequence (P06241 whole entry): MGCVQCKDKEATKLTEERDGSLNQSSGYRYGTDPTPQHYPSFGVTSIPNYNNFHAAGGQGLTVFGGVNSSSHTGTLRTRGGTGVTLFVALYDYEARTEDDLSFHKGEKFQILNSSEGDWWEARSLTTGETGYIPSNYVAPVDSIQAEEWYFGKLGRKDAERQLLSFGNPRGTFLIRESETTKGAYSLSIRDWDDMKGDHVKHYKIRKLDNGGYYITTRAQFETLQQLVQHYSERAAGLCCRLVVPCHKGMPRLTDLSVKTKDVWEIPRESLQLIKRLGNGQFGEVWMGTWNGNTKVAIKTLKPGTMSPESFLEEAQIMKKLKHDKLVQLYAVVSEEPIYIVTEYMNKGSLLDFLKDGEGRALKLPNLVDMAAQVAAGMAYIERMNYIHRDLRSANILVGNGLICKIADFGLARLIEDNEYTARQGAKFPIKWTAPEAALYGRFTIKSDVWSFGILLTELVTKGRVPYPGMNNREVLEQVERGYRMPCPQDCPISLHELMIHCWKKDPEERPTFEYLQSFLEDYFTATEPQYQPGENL
T2 sequence (P17948 27-1338): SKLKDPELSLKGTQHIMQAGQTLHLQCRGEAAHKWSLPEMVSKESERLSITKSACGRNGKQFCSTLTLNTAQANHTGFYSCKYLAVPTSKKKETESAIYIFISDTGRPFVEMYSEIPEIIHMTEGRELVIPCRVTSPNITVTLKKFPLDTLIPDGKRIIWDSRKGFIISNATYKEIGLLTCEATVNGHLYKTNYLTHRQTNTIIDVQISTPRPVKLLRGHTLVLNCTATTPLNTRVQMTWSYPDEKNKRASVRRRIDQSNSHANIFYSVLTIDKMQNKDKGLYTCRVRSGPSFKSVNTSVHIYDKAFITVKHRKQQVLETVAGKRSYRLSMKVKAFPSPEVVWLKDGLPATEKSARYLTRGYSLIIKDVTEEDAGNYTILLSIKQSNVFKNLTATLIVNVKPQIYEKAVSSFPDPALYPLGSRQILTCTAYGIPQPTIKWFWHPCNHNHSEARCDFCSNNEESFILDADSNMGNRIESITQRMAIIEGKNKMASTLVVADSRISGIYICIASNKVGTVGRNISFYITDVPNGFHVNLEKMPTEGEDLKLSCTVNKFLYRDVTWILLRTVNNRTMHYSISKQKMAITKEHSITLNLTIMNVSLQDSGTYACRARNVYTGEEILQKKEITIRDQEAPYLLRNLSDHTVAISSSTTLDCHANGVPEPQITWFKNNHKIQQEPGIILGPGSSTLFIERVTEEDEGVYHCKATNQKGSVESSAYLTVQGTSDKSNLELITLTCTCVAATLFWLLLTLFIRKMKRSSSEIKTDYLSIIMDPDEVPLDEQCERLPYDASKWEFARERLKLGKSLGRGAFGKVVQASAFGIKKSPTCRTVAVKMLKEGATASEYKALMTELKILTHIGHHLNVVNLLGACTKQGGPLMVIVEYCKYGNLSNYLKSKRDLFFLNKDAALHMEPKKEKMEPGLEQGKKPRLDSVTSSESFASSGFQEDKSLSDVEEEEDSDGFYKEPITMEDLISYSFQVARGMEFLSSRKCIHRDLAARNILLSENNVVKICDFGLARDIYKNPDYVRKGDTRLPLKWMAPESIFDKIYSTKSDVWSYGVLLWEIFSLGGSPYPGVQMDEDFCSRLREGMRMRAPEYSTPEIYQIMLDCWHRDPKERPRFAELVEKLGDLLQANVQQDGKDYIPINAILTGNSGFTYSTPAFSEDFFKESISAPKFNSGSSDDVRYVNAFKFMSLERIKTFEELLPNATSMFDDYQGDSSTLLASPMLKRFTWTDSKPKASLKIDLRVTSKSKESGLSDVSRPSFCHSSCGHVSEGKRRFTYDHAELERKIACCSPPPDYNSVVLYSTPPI
T9 sequence (Q9H422 whole entry): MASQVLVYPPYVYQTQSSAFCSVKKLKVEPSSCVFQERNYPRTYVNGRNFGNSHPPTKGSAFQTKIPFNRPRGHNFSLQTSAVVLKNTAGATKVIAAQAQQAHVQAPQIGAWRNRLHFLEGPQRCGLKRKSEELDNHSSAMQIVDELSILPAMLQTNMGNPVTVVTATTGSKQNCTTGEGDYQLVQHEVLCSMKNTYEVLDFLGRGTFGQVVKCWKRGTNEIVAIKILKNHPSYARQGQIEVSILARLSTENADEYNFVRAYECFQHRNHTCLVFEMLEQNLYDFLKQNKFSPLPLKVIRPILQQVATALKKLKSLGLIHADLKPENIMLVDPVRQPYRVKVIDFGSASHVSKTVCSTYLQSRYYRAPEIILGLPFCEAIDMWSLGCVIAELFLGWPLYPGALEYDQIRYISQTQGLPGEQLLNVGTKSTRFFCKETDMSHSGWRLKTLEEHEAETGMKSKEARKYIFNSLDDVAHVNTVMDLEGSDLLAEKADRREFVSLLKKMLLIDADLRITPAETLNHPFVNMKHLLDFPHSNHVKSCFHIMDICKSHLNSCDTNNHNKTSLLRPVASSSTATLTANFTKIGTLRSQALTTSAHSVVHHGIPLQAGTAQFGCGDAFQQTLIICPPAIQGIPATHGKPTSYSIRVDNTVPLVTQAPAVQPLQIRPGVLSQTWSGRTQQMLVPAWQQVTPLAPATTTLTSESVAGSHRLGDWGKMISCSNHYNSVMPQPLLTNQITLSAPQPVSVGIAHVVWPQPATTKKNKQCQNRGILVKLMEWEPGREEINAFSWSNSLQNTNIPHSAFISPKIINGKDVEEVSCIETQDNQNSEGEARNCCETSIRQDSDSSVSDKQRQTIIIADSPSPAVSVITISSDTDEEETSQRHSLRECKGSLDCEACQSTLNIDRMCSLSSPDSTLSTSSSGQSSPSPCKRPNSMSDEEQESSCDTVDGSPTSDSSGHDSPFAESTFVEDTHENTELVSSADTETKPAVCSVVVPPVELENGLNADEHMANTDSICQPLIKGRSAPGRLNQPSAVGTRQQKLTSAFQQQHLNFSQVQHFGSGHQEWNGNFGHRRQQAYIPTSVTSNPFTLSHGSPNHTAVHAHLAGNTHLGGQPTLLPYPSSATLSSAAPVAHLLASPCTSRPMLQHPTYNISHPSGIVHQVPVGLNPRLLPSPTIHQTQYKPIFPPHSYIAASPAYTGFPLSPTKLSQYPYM

On to `CNc1nc(Nc2ccc(S(=O)(=O)N3CCC(N4CCOCC4)CC3)cc2OC)nc2[nH]cc(Cl)c12` [Compound 12, 5-chloro-N2-(2-methoxy-4-((4-morpholinopiperidin-1-yl)sulfonyl)phenyl)-N4-methyl-7H-pyrrolo[2,3-d]pyrimidine-2,4-diamine], for which the remaining binding at 1 µM on panel of 468 kinases [1] was 100%; at panel of 468 kinases [2], 100%; at panel of 468 kinases [3], 100%; at panel of 468 kinases [4] it was 26%; at panel of 468 kinases [5] it was 77%; at panel of 468 kinases [6], 100%. Moreover, the remaining binding at 1 µM on panel of 468 kinases [7] was 100%; on panel of 468 kinases [8], 100%; at panel of 468 kinases [9], 72%.

With `CNc1nc(Nc2ccc(C(=O)N3CCC(N4CCOCC4)CC3)c3c2OCO3)nc2[nH]cc(Cl)c12` [Compound 75, (7-((5-chloro-4-(methylamino)-7H-pyrrolo[2,3-d]pyrimidin-2-yl)amino)benzo[d][1,3]dioxol-4-yl)(4-morpholinopiperidin-1-yl)methanone], the remaining binding at 1 µM turned out to be 100% at panel of 468 kinases [1]; 73% at panel of 468 kinases [2]; 100% at panel of 468 kinases [3]; 2.4% on panel of 468 kinases [4]; 58% at panel of 468 kinases [5]; 95% at panel of 468 kinases [6]. The remaining binding at 1 µM came out at 100% at panel of 468 kinases [7], 100% on panel of 468 kinases [8] and 59% at panel of 468 kinases [9].

For `CNc1nc(Nc2ccc(P3(=O)CCN(C4CCOCC4)CC3)cc2OC)nc2[nH]cc(Cl)c12` [Compound 77, 4-(4-((5-chloro-4-(methylamino)-7H-pyrrolo[2,3-d]pyrimidin-2-yl)amino)-3-methoxyphenyl)-1-(tetrahydro-2H-pyran-4-yl)-1,4-azaphosphinane 4-oxide], the remaining binding at 1 µM on panel of 468 kinases [1] is 95%; on panel of 468 kinases [2], 100%; on panel of 468 kinases [3], 100%; at panel of 468 kinases [4], 9.4%; at panel of 468 kinases [5] it was 93%; at panel of 468 kinases [6], 84%. The remaining binding at 1 µM at panel of 468 kinases [7] was 96%; at panel of 468 kinases [8], 100%; on panel of 468 kinases [9] it was 64%.
